Data set [1] can be described thus: Storage at 25 °C with constant exposure to the air. It counts as physicochemical. How it is done:
The figures also show the separation of PGF2α and its 15-epimer. […] In FIGS. 4, 4a and 4b, all injections represent 100 μg of PGF2α initial samples.

A further data set is described as follows: physchem. Here is the method:
A weighed sample was diluted with dioxane to produce a solution which was 10μg PGF2α /μl of solution. This solution was used to calibrate the response of the differential refractometer of a Waters Assoc. Model 100 high pressure liquid chromatograph (h.p.l.c.). The calibration appears in FIG. 1. FIG. 1, the PGF2α peak height conditions are as follows: column 4 feet ×0.125 inches o.d., column of Corasil -II. Solvent 0.2% HOAc/EtOAc wherein the former is acetic acid and the latter is ethyl acetate. Flow 0.9ml/min. Reaction times: dioxane front appears at […]. PGF2α at 14 min. from injection corresponding to column void volume after void volume displacement. The numbers on the x-axis are μg injected and the numbers along the y-axis indicate detector response in inches at peak heights.
Weighed samples, 0.5-1.0 mg. ± 0.03 mg, of PGF2α and crystalline racemic PGF2α were placed in 1 dram vials. These vials were randomly divided between storage at -20° C under argon and storage at 41 ± 2°, open to the air, in a sand bath. At stipulated times samples were removed from both types of storage, diluted to 10μg PGF2α /μl, and assayed by h.p.l.c. […] Individual assays of 41° C stored samples are collected in FIG. 2. […] The open symbols are for racemic PGF2α and the closed symbols are for nat. PGF2α. The different symbols are used to indicate different samples. Replicate analysis appear as multiple used of the same symbols at any one time. […] The numbers along the x-axis are days at 41 ± 2° C and along the y-axis are percents.
Since, prostaglandins, including the dienoics, are known to be unstable, as they undergo autoxidation on exposure to air. Methods of Biochemical Analysis, Vol. 17, pages 325 to 371, 1969, published by Interscience Publishers, New York.
FIGS. 3, 3a and 3b show the traces from rapid analysis, (at 1 ml/min.). […] In FIGS. 4, 4a and 4b, all injections represent 100 μg of PGF2α initial samples.

Data set [2] in a line: Storage at -20 °C under argon, h.p.l.c. assay. It counts as physicochemical. Particulars: samples taken at stipulated times. How it is done: Natural 9α,11α,15(S)-trihydroxy-5-cis,13-trans-prostadienoic acid, natural PGF2α, prepared from total synthesis was a soft, waxy semi-crystalline compound melting in the range of 25°-32°. […] The calibration appears in FIG. 1. FIG. 1, the PGF2α peak height conditions are as follows: column 4 feet ×0.125 inches o.d., column of Corasil -II. […] Flow 0.9ml/min. Reaction times: dioxane front appears at 30 min.
Weighed samples, 0.5-1.0 mg. ± 0.03 mg, of PGF2α and crystalline racemic PGF2α were placed in 1 dram vials. These vials were randomly divided between storage at -20° C under argon and storage at 41 ± 2°, open to the air, in a sand bath. […] In FIG. 2, the loss of PGF2α on storage open to air at 41 ± 2° C is set forth. […] PGF2α. The different symbols are used to indicate different samples. […] The numbers along the x-axis are days at 41 ± 2° C and along the y-axis are percents. The crystalline racemate assayed 103 ± 3% based on the natural compound.

With `CCCCC[C@H](O)/C=C/[C@@H]1[C@@H](C/C=C\CCCC(=O)O)[C@@H](O)C[C@H]1O` (relative stereo) [Polymorph I, racemic 9α,11α,15(S)-trihydroxy-5-cis,13-trans-prostadienoic acid], the extent of oxidation result in data set [1] (in 17 days, stated for comparison ("would be")) is reported as “over half oxidized in 17 days”.
With `CCCCC[C@H](O)/C=C/[C@@H]1[C@@H](C/C=C\CCCC(=O)O)[C@@H](O)C[C@H]1O` (relative stereo) [Polymorph II, crystalline racemic 9α,11α,15(S)-trihydroxy-5-cis,13-trans-prostadienoic acid], in “physchem”, the “long term storage stability (overall finding)” value is recorded as “superior long term storage stability”. In addition, the change after storage result in the data set “physchem” (after 14 days, open to air at 41 ± 2 °C) is “unchanged after 14 days”. Moreover, in the data set “physchem” (h.p.l.c., differential refractometer, based on natural PGF2α), the “assay of crystalline racemate based on the natural compound” value is reported as 103 ± 3%. In “physchem” (storage open to air), this compound registered a degraded of 3%. For the same compound, in data set [2], the “assay by h.p.l.c. against fresh standards after storage” value is recorded as “within experimental error of fresh standards (±6%)”. Besides, the “crystalline loss on storage” value in data set [1] (25 °C, constant exposure to the air, after more than one year) was “without any evidence of crystalline loss after more than one year”.
On to `CCCCC[C@H](O)/C=C/[C@@H]1[C@@H](C/C=C\CCCC(=O)O)[C@@H](O)C[C@H]1O` [PGF2α, Natural 9α,11α,15(S)-trihydroxy-5-cis,13-trans-prostadienoic acid, reference compound], for which the “identity of degradation products versus 15-epi-PGF2α” value in the data set “physchem” is “Neither of the degradation products seen in the PGF2α sample stored 9 days at 41 °C corresponds to 15-epi-PGF2α”. The “assay by h.p.l.c. against fresh standards after storage” value in data set [2] is on record as “within experimental error of fresh standards (±6%)”.
As for `CCCCC[C@H](O)/C=C/[C@@H]1[C@@H](C/C=C\CCCC(=O)O)[C@@H](O)C[C@H]1O` [oily PGF2α, reference compound], in the data set “physchem”, the “course of degradation by oxidation” value was “degrades by oxidation rapidly at first suggestive of a surface reaction, and then more slowly”; the “measured half life of degradation by oxidation” value came to 17 days.

The record behind these values is patent publication US3940438A, “Crystalline racemic 9α,11α,15(S)-trihydroxy-5-cis,13-trans-prostadienoic acid” (priority 1973, dated 1976).
